Ends that are not written are not given here.
How the values were obtained:
[1] = test system: HT-22 cells; test: Receptor recycling: MGS_NOE3_V2-4 uptake with chloroquine or cycloheximide; format: cell-based, mouse; details: 100 nM MGS_NOE3_V2-4; 100 μM chloroquine or 250 μM cycloheximide; up to 24 h
Procedure: The cellular receptor for MGS_NOE3_V2-4 is recycled (FIG. 22). HT-22 cells were incubated with culture medium containing 100 nM MGS_NOE3_V2-4 in the presence of 100 μM chloroquine or 250 μM cycloheximide for the indicated times. The cellular uptake was analyzed by flow cytometry. […] New protein synthesis is not required for continued uptake of MGS_NOE3_V2-4. Endosomal acidification is required for continued uptake of MGS_NOE3_V2-4. MGS_NOE3_V2-4 uptake continues with time.
For experiments to determine if the cellular receptor is recycled, cells were treated with peptide in the presence of 100 μM chloroquine or 250 μM cycloheximide. At the indicated time points, the cells were washed and analyzed as described above.

[2] = test system: HT22 cells (mouse hippocampal neuronal cell line); test: Peptide uptake by quantitative flow cytometry in HT22 cells; format: cell-based; details: for Uptake into HT22 cells versus concentration (in words): 1 h at 37° C.
Procedure: FIG. 26A. […] FIG. 26B. […] FIG. 26C.
(§1) It must be on the tetrameric core to function. […] The number of molecules of peptide internalized per cell was determined by a quantitative flow cytometry assay. […] MGS_NOE3_V1-4 and MGS_NOE3_V2-4 display a 5-6-fold specificity for neurons over astrocytes and 3-fold specificity compared to microglia. […] Incubations were performed for 1 h at 37° C. […] Uptake was determined by flow cytometry assay.
(§2) Peptide concentration and incubation time as well as cell line used is indicated in each figure. […] Cells were removed by trypsinization. Flow cytometry was performed on a BD FACSCelesta, and data were analyzed using FlowJo_v10.8. Cells were gated based on the forward and side scatter to include only viable cells and a minimum of 10,000 events were counted. For absolute peptide uptake per cell, a standard curve was generated using Quantum™ Alexa Fluor 647 microspheres. MFI was determined at 50% at peak height. Molecules internalized per cell were determined by the standard curve relating MESF to MFI and divided by the number dye molecules/MGS conjugate. GraphPad Prism® was used for non-linear regression curve fitting to calculate an EC50.

[3] = human serum (Innovative Research, H6430); details: 37° C., up to 24 hours
[4] = test system: HT22 and GT1/7 neuronal cell lines vs CTX TNA2 astrocytes and HMC3 microglia; test: Uptake of MGS_NOE3 tetramers across cell lines by quantitative flow cytometry; format: cell-based, mouse, rat, human; details: 200 nM, 1 h
Procedure: as §1, §2

[5] = test system: HT22 cells; test: Confocal live cell imaging of internalization into HT22 cells; details: 200 nM, 37° C., Alexa Fluor 647
Procedure: Cells were incubated with 200 nM, and the average uptake per cell was determined. […] Alexa Fluor 488 conjugated wheat germ agglutinin was used to label the cell membrane and Hoechst 33342 was used to stain the nucleus. Live cell imaging was performed, and representative images are shown.
AlexaFluor488 conjugated wheat germ agglutinin was used to label the cell membrane and Hoechst 33342 was used to stain the nucleus. Live cell imaging was performed, and representative images are shown.
The test cells were seeded in 35 mm confocal microscopy dish 24 hours prior to treatment. The test peptides labeled with Alexa Fluor 647 were incubated on cells in media for the indicated time at 37° C. After incubation, the cells were washed 3 times with PBS, 2 times with 0.1 M HCl-glycine pH 2.2 in 0.9% NaCl and 1 time with PBS. Alexa Fluor 488 conjugated wheat germ agglutinin was used to label the cell membrane and Hoechst 33342 was used to stain the nucleus. Microscopy was acquired on a Zeiss LSM 700 with a Pln Apo 63×/1.4 oil DIC III objective. Images were processed using Zen software.
For peptides that were biotinylated instead of direct labeling with Alexa Fluor 647, the peptide-SA-AF647 conjugate was prepared by mixing Alexa Fluor™ 647 conjugated streptavidin and biotinylated peptide with an equal molecular ratio in 100 μl PBS for 30 minutes at room temperature. […]

[6] = test system: brain cells; test: Brain cell association after intrathecal injection, flow cytometry; format: in vivo, C57BL/6 mouse; details: Alexa Fluor 647 label, 1 hr circulation, compared to naïve animals
Excerpt: (A) Gating strategy for total brain cells vs debris. (B) Gating strategy excluding cell doublets. FIG. 24C indicates the fluorescent intensity of MGS_NOE3-V2-4 internalized into brain cells following intrathecal injection compared to naïve animals.
MGS_NOE3-V2-4 was labeled with Alexa Fluor 647 and injected intrathecally in a C57BL/6 mouse. After the peptide circulated for 1 hr, the animal was euthanized, and the brain tissue was harvested. The whole brain was subsequently dissociated using the Miltenyi Biotec gentleMACS Octo Dissociator. The number of MGS_NOE3_V2-4 molecules internalized into brain cells were analyzed by flow cytometry (BD FACSCelesta).
Alternatively, all CNS cells were analyzed as a mixture by dissociating the brain using the Miltenyi Biotec gentleMACS Octo Dissociator. No enrichment for a CNS subpopulation was performed and cells were directly analyzed by flow cytometry. Gating was used to eliminate cell debris and cell doublets.

[7] = test system: HMC3 cells (human microglia cell line); test: Peptide uptake by quantitative flow cytometry in HMC3 cells; format: cell-based
Procedure: Under both cell states, an average of ˜60,000 molecules of MGS2_V4-2 were internalized. […] All cell lines were incubated with MGS2_V4-2 at 25 nM for 1 hour at 37° C.
Cells were incubated at the indicated concentration of each peptide construct that had been labeled with Alexa Fluor 647. After 1 h incubation at 37° C., uptake was determined by quantitative flow cytometry. […] Thus, uptake is mediated by the MGS not the MTS.
However, binding was rescued by using the tetrameric MGS2_V4-4 as the targeting peptide in this multifunctional chimera (shown in panel A).
as §2
HMC3 cells were activated with interferon-gamma (IFN-γ) (10 ng/ml, 24 h). Resting phenotype was characterized by expression of IBA1, and endotoxin receptor CD14, but negative for the astrocyte marker GFAP. […] In Vivo MTS and MTS-MGS Targeting Experiments

[8] = target: Recombinant human transferrin receptor (Homo sapiens, UniProt P02786); test: ELISA binding to plate-absorbed transferrin receptor; details: receptor at 1 μg/mL, biotinylated peptide at varying concentrations, 1 h
Sequence of Recombinant human transferrin receptor (P02786 whole entry): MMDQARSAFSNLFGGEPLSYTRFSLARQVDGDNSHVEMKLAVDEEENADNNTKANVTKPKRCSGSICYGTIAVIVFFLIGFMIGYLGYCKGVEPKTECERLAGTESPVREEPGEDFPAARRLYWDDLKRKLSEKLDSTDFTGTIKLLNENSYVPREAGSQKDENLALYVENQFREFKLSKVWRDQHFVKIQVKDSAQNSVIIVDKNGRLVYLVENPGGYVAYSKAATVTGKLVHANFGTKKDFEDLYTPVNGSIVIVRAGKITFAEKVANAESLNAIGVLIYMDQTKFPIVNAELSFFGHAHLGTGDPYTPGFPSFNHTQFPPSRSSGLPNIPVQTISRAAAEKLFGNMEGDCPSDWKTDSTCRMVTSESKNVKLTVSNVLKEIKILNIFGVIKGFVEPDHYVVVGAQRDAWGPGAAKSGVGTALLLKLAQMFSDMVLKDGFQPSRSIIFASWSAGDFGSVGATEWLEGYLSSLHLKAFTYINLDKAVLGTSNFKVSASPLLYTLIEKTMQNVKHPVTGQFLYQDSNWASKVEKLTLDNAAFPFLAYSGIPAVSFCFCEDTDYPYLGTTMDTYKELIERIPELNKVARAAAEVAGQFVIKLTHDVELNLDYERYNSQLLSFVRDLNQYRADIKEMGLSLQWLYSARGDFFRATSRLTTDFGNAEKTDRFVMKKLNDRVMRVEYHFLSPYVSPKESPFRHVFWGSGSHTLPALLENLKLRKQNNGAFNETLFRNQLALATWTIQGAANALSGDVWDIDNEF
Procedure: Recombinant human transferrin receptor was absorbed onto high binding ELISA plates at 1 μg/mL. […] Retained MTS peptide was detected using streptavidin-HRP and TMB reagent. The absorbance was measured at 450 nm and is proportional to the amount of MTS peptide captured by transferrin receptor. […] By comparison, MTS3_V1-2 and a scrambled control peptide of MTS2_V1-2 show no binding. The binding affinity of MTS2_V1-2 for transferrin receptor was determined by biolayer interferometry on a OctetRED 96 system. The biotinylated MTS2_V1-2 peptide was captured on streptavidin probe. The kon and koff rate were determined at various concentrations of human or mouse transferrin receptor allowing for determination of the dissociation constant.

[9] = rat, in vivo
Procedure: MTS variants labeled with the near infrared dye Alexa Fluor 750 were injected into the tail vein of Sprague Dawley rats at 1 μg MTS/kg rat body weight. At the indicated time, CSF was isolated via capillary puncture of the cisterna magna. […] To assure the fatty acid is not driving the transport into the CNS, a control peptide scMTS3_V2-2 which contains the MTS3 amino acid composition but with a scrambled sequence was lipidated.
The MTS peptide directly conjugated to Alexa Fluor 750 dye (1 μg/g body weight) is injected via lateral tail vein into a Sprague-Dawley Rat and allowed to circulate for the indicated time (20 min, 1 h 6 h, 24 h). The animal is anesthetized 10 mins prior to the end of the time point and 2 mL 200× Heparinized Saline is injected intraperitoneally. To collect the CSF, a blunt dissection of the back of the neck is performed to expose the clear dura mater covering the cisterna magna. Using a glass micropipette, CSF is aspirated from the cisterna magna at the indicated time point. Following CSF collection, a transcardial perfusion is performed by flushing with 500 mL ice cold 1× PBS containing heparin to remove any blood from the body. The brain and other tissues are isolated. The brain is homogenized using a Dounce homogenizer in lysis buffer (30 mM Tris-HCl, pH 8.0 0.05% Triton X-100) and the soluble fraction collected. […]

[10] = rat, in vivo; remark: listed apart in the source
Procedure: Coronal slices are 1 mm and arranged from the front (upper left) to back (lower right).
Coronal slices of 1 mm thickness are prepared using a brain matrix. The slices are imaged on an Odyssey Imager collecting fluorescent signal at 800 nm.

[11] = Serum stability (RP-HPLC of Alexa Fluor 647 labeled peptide); format: in vitro ADME; details: 37° C., 24 h
Procedure: MGS2_V4-2 labeled with Alex Fluor 647 was incubated in human serum at 37° C. At the indicated times, an aliquot was removed, serum proteins were precipitated, and the resultant supernatant was analyzed by reverse phase HPLC monitoring the absorbance at 650 nm. Chromatograms for each time point are shown. Intact peptide has a retention time at 11.864. […] Peaks were integrated to determine the percentage of intact peptide as well as the amount of observed degradation product. At 24 h, >75% of the MGS2_V4-2 is still intact. Electrospray mass spectrometry was performed on the peptide product arising at the 10.005 min retention time. The mass of this new species corresponds to the loss of the 3 amino acids on both branches of MGS2_V4-2.
The concentration of a solution of peptide conjugated with dye (Alexa Fluor 647) was determine by absorbance at 651 nm and ˜14 nmol of peptide was lyophilized. The lyophilized peptide powder was dissolved in 400 μL of human serum (Innovative Research, H6430) to achieve a 35 μM solution. The sample was incubated at 37° C. and shaken. For each time point (0, 1, 2, 4, 20 and 24 hours), a 50 μL aliquot was removed from the reaction and 100 μL of absolute ethanol was added to precipitate serum proteins. Samples were incubated on ice for 15 mins before being centrifuged at 12,000 rpm for 5 mins. […] Finally, 100 μL of each sample were analyzed by analysis RP-HPLC.

C[C@@H]1C[C@@H]([C@H](O)CC2CC(=O)NC(=O)C2)C(=O)[C@@H](C)C1 [Cycloheximide]
Effect on MGS_NOE3_V2-4 uptake [1]: no impact on MGS_NOE3_V2-4 uptake

CCN(CC)CCCC(C)Nc1ccnc2cc(Cl)ccc12 (stereo not shown) [chloroquine]
Effect on MGS_NOE3_V2-4 uptake [1]: greatly reduces uptake

Ac-GFHNVYPYTWGGFSDIDLMADEI [MGS_NOE3_V2]
Uptake into HT22 cells versus concentration (in words) [2]: no uptake was observed on HT22 cells

Ac-YAAWPASGAWT
fragment found [3]: loss of the 3 amino acids on both branches of MGS2_V4-2, 1 h

MGS_NOE3_V1-4: tetrameric version of GFHNVYPYTWGGFSDIDLMADEI (SEQ ID NO:1) (also: tetrameric construct on a core linker)
Specificity for neurons compared to microglia [4]: 3 fold

MGS_NOE3_V2-2 (Ac-GFHNVYPYTWGGFSDIDLMADEI; also: dimer)
Uptake into HT22 cells versus concentration (in words) [2]: no uptake was observed on HT22 cells

MGS_NOE3_V2-4: tetrameric version of Ac-GFHNVYPYTWGGFSDIDLMADEI (SEQ ID NO:5) (also: tetrameric construct)
Internalization into HT22 cells by confocal live cell imaging [5]: internalized into neuronal cells | Specificity for neurons compared to microglia [4]: 3 fold | Association with brain cells after intrathecal injection [6]: associated with cells in the CNS after intrathecal injection | Uptake into HT22 cells over time (in words) ([2]; 200 nM, 37° C.): increases over time | Uptake into HT22 cells versus concentration (in words) [2]: increases with increasing concentration | Intracellular concentration reached ([2]; uptake to at least 24 H): ≈ 1 μM

MTS3_V1-2 (Ac-SKETYSMNAQRQHERS; also: dimer)
Cellular uptake in HMC3 cells (in words) ([7]; 1 h at 37° C., quantitative flow cytometry): no significant cellular uptake at any of the concentrations tested | Binding to transferrin receptor in ELISA (absorbance at 450 nm) [8]: no binding

MTS3_V2-2 (Ac-SKETYSMNAQRQHERS; also: dimer, C16 fatty acid)
Transport into the brain parenchyma, fold higher than nonmodified MTS3_V1-2 [9]: 10-12 fold | Transport into the brain parenchyma, fold higher than scrambled control scMTS3_V2-2 [9]: 17-31 fold | Brain uptake by fluorescent imaging of 1 mm coronal slices [10]: increased brain uptake compared to MTS3_V1-2 at all time points

dimer version of MTS2_V1, Ac-FPSWTSKNQQWTNQRQ (also: dimer) [MTS2_V1-2]
Binding to transferrin receptor in ELISA (absorbance at 450 nm) [8]: binds to human transferrin in a concentration dependent manner which saturates at higher concentrations

dimeric form of MGS2_V4, Ac-YAAWPASGAWT (SEQ ID NO:8) [MGS2_V4-2]
Uptake in HMC3 cells versus other CNS cell lines (specificity) ([7]; 25 nM, 1 hour at 37° C., versus neuronal cells, Schwann cell, astrocytes): significantly higher in HMC3 cells than other cells of the central nervous system | Molecules internalized (average) ([7]; HMC3 cells of resting or activated phenotype, 1 hour): ~60,000 molecules | EC50 ([7]; HMC3 cells, 1 h at 37° C., read-out: EC50 (half maximal uptake)): 7.3 nM | Intact peptide in human serum [11]: > 75%

Source: US12516086B2 (SRI International, priority 2021, dated 2026)
